{"source": "patent US4391828A", "about": "“Dibutylorthobenzylmethoxybenzenes and dibutylorthocinnamylmethoxybenzenes as mosquito larvae growth inhibitors” (The United States of America as represented by the …, priority 1982, dated 1983)", "experiment_in_all_cases": "Growth-inhibition test on mosquito larvae", "key": {"[1]": {"system": "Anopheles quadrimaculatus", "type": "in vivo, Anopheles quadrimaculatus (malaria mosquito)", "conditions": "late third- and early fourth-stage larvae, 7 days, corrected by Abbott's formula; for LC50: 168 h, read-out: LC-50 (concentration that would prevent and/or retard the growth in 50% of the treated larvae)", "procedure": "(§1) Twenty-five late third-and early fourth-stage mosquito larve were placed in a 500-ml glass jar (9X8.5 cm diam) containing 100 ml of well water, 0.05g ground hog supplement for larval food, and a known amount of the test compound in not more than 1.0ml acetone. The jars were covered with cloth netting and held in constant temperature incubators at 26.7°-28.9° C. and 65-75% relative humidity; a low level of illumination (ca. 0.5 foot candles inside the incubators) was maintained during nonworking hours. After seven days, the jars were examined for the number of dead pupae, the number of adults that were dead or unable to complete eclosion and the number of exuvia. […] Tests were replicated for at least one concentration and a control was set with each test series. Several concentrations of each compound were tested so that a dose-response relationship could be established.\n(§2) The effectiveness of the compound in inhibiting growth was determined by adding the numbers of dead larvae and pupae and the numbers of adults that were dead, unable to complete eclosion, and malformed. This sum was corrected by Abbott's formula (to adjust for the number of larvae or pupae which would die naturally). The results are expressed as LC 50 or LC 90, i.e., the concentration of growth inhibitor in ppm that would prevent and/or retard the growth in 50% or 90%, respectively, of the treated larvae."}, "Aedes taeniorhynchos": {"system": "Aedes taeniorhynchos", "type": "in vivo", "conditions": "late third- and early fourth-stage larvae, 7 days, corrected by Abbott's formula", "procedure": "as §1, §2"}, "Anopheles albimanus": {"system": "Anopheles albimanus", "type": "in vivo", "conditions": "late third- and early fourth-stage larvae, 7 days, corrected by Abbott's formula", "procedure": "as §1, §2"}, "Aedes aegypti": {"system": "Aedes aegypti", "type": "in vivo, Aedes aegypti (yellow fever mosquito)", "conditions": "late third- and early fourth-stage larvae, 7 days, corrected by Abbott's formula", "procedure": "as §1, §2"}}, "data": [{"smiles": "COc1c(Cc2ccccc2)cc(C(C)(C)C)cc1C(C)(C)C", "note": "[A, 2,4-Bis(1,1-dimethylethyl)-6-(phenylmethyl)methoxybenzene]", "values": [{"measurement": "LC50", "setting": "[1]", "value": 0.065, "unit": "µg/mL"}, {"measurement": "LC-90 (concentration that would prevent and/or retard the growth in 90% of the treated larvae)", "setting": "[1]", "value": 0.092, "unit": "ppm"}, {"measurement": "LC-50", "setting": "Aedes taeniorhynchos", "value": 0.026, "unit": "ppm"}, {"measurement": "LC-90", "setting": "Aedes taeniorhynchos", "value": 0.164, "unit": "ppm"}, {"measurement": "LC-50", "setting": "Anopheles albimanus", "value": 0.014, "unit": "ppm"}, {"measurement": "LC-90", "setting": "Anopheles albimanus", "value": 0.025, "unit": "ppm"}]}, {"smiles": "COc1c(C(C)c2ccccc2)cc(C(C)(C)C)cc1C(C)(C)C", "note": "(stereo not drawn) [A-III]", "values": [{"measurement": "LC-90 (concentration that would prevent and/or retard the growth in 90% of the treated larvae)", "setting": "[1]", "value": "> 1.0", "unit": "ppm"}]}, {"smiles": "CCOc1c(C(C)c2ccccc2)cc(C(C)(C)C)cc1C(C)(C)C", "note": "(stereo not drawn) [A-II]", "values": [{"measurement": "LC-90 (concentration that would prevent and/or retard the growth in 90% of the treated larvae)", "setting": "[1]", "value": "> 1.0", "unit": "ppm"}]}, {"smiles": "CC(C)(C)c1cc(Cc2ccccc2)c(O)c(C(C)(C)C)c1", "note": "[A-I]", "values": [{"measurement": "LC50", "setting": "[1]", "value": 0.2, "unit": "µg/mL"}, {"measurement": "LC-90 (concentration that would prevent and/or retard the growth in 90% of the treated larvae)", "setting": "[1]", "value": 1.37, "unit": "ppm"}]}, {"smiles": "CCOc1c(Cc2ccc(OC)cc2)cc(C(C)(C)C)cc1C(C)(C)C", "note": "[B-II]", "values": [{"measurement": "LC50", "setting": "[1]", "value": 0.074, "unit": "µg/mL"}, {"measurement": "LC-90 (concentration that would prevent and/or retard the growth in 90% of the treated larvae)", "setting": "[1]", "value": 0.285, "unit": "ppm"}]}, {"smiles": "COc1ccc(C(C)c2cc(C(C)(C)C)cc(C(C)(C)C)c2OC)cc1", "note": "(stereo not drawn) [B-IV]", "values": [{"measurement": "LC50", "setting": "[1]", "value": 0.242, "unit": "µg/mL"}, {"measurement": "LC-90 (concentration that would prevent and/or retard the growth in 90% of the treated larvae)", "setting": "[1]", "value": 0.556, "unit": "ppm"}]}, {"smiles": "CCOc1c(C(C)c2ccc(OC)cc2)cc(C(C)(C)C)cc1C(C)(C)C", "note": "(stereo not drawn) [B-V]", "values": [{"measurement": "LC-90 (concentration that would prevent and/or retard the growth in 90% of the treated larvae)", "setting": "[1]", "value": "> 1.0", "unit": "ppm"}]}, {"smiles": "COc1c(CC=Cc2ccccc2)cc(C(C)(C)C)cc1C(C)(C)C", "note": "[C, 2,4-Bis(1,1-dimethylethyl)-6-(3-phenyl-2-propenyl)methoxybenzene]", "values": [{"measurement": "LC50", "setting": "[1]", "value": 0.026, "unit": "µg/mL"}, {"measurement": "LC-90 (concentration that would prevent and/or retard the growth in 90% of the treated larvae)", "setting": "[1]", "value": 0.089, "unit": "ppm"}]}, {"smiles": "CCOc1c(CC=Cc2ccccc2)cc(C(C)(C)C)cc1C(C)(C)C", "note": "[C-II]", "values": [{"measurement": "LC50", "setting": "[1]", "value": 0.189, "unit": "µg/mL"}, {"measurement": "LC-90 (concentration that would prevent and/or retard the growth in 90% of the treated larvae)", "setting": "[1]", "value": 1.042, "unit": "ppm"}]}, {"smiles": "CC(C)(C)c1cc(CC=Cc2ccccc2)c(O)c(C(C)(C)C)c1", "note": "[C-I]", "values": [{"measurement": "LC50", "setting": "[1]", "value": 0.152, "unit": "µg/mL"}, {"measurement": "LC-90 (concentration that would prevent and/or retard the growth in 90% of the treated larvae)", "setting": "[1]", "value": 0.399, "unit": "ppm"}]}, {"smiles": "COc1ccc(Cc2cc(C(C)(C)C)cc(C(C)(C)C)c2OC)cc1", "note": "[Compound B, 2,4-Bis (1,1-dimethylethyl)-6-[(4-methoxyphenyl)methyl]-methoxybenzene]", "values": [{"measurement": "LC-90 (concentration that would prevent and/or retard the growth in 90% of the treated larvae)", "setting": "[1]", "value": 0.032, "unit": "ppm"}, {"measurement": "LC-50", "setting": "Aedes taeniorhynchos", "value": 0.009, "unit": "ppm"}, {"measurement": "LC-90", "setting": "Aedes taeniorhynchos", "value": 0.023, "unit": "ppm"}, {"measurement": "LC-50", "setting": "Anopheles albimanus", "value": ".005 ppm"}, {"measurement": "LC-90", "setting": "Anopheles albimanus", "value": 0.009, "unit": "ppm"}, {"measurement": "LC-50", "setting": "Aedes aegypti", "value": 0.005, "unit": "ppm"}, {"measurement": "LC-90", "setting": "Aedes aegypti", "value": 0.099, "unit": "ppm"}]}, {"smiles": "COc1ccc(Cc2cc(C(C)(C)C)cc(C(C)(C)C)c2O)cc1", "note": "[Compound B-I, 2,4-bis(1,1-dimethylethyl)-6-[(4-methoxyphenyl)methyl]phenol]", "values": [{"measurement": "LC50", "setting": "[1]", "value": 0.12, "unit": "µg/mL"}, {"measurement": "LC-90 (concentration that would prevent and/or retard the growth in 90% of the treated larvae)", "setting": "[1]", "value": 0.225, "unit": "ppm"}]}]}
